# Several values for one entry are separate records, joined by “and”; a condition that tells them apart may be missing. Identical values can stand only once. Like-named read-outs stand apart in the source and are kept apart here.
# How the values were obtained:
# [1] = tested on: M. avium clinical isolate Koav 3 (GyrA Asp95Gly); assay type: cell-based, M. avium subsp. hominissuis
# [2] = tested on: M. avium clinical isolate Koav 11 (GyrA Asp95Tyr); assay type: cell-based, M. avium subsp. hominissuis
# [3] = tested on: M. avium clinical isolate Koav 13 (GyrA Asp95Gly); assay type: cell-based, M. avium subsp. hominissuis
# [4] = tested on: M. avium clinical isolate Cl-A-2 (GyrA Asp95Tyr); assay type: cell-based, M. avium subsp. hominissuis
# [5] = tested on: M. avium clinical isolate Koav 1 (WT); assay: microbe, parasite or virus in culture; assay type: cell-based; details: Mycobacterium avium
# [6] = tested on: M. avium clinical isolate Koav 2 (WT); assay: microbe, parasite or virus in culture; assay type: cell-based; details: Mycobacterium avium, drug alone, day 14
# [7] = tested on: M. avium clinical isolate Koav 15 (WT); assay: microbe, parasite or virus in culture; assay type: cell-based; details: Mycobacterium avium
# [8] = tested on: M. avium clinical isolate Koav 19 (WT); assay: microbe, parasite or virus in culture; assay type: cell-based; details: Mycobacterium avium
# [9] = tested on: M. avium clinical isolate Koav 20 (WT); assay: microbe, parasite or virus in culture; assay type: cell-based; details: Mycobacterium avium
# [10] = tested on: M. avium clinical isolate Koav 21 (WT); assay: microbe, parasite or virus in culture; assay type: cell-based; details: Mycobacterium avium
# [11] = tested on: M. avium clinical isolate Koav 25 (WT); assay: microbe, parasite or virus in culture; assay type: cell-based; details: Mycobacterium avium
# [12] = tested on: M. avium clinical isolate Koav 3 (GyrA Asp95Gly); assay type: cell-based, M. avium subsp. hominissuis; remark: listed apart in the source
# [13] = tested on: M. avium clinical isolate Koav 11 (GyrA Asp95Tyr); assay type: cell-based, M. avium subsp. hominissuis; remark: listed apart in the source
# [14] = tested on: M. avium clinical isolate Koav 13 (GyrA Asp95Gly); assay type: cell-based, M. avium subsp. hominissuis; remark: listed apart in the source
# [15] = tested on: M. avium clinical isolate Cl-A-2 (GyrA Asp95Tyr); assay type: cell-based, M. avium subsp. hominissuis; remark: listed apart in the source
# [16] = tested on: M. avium clinical isolate Koav 1 (WT); assay: microbe, parasite or virus in culture; assay type: cell-based; details: Koav 1 (K 1), WT; for MIC: Mycobacterium avium
# [17] = tested on: M. avium clinical isolate Koav 2 (WT); assay: microbe, parasite or virus in culture; assay type: cell-based; details: Koav 2 (K 2), WT; for MIC: Mycobacterium avium
# [18] = tested on: M. avium clinical isolate Koav 15 (WT); assay: microbe, parasite or virus in culture; assay type: cell-based; details: Koav 15 (K 15), WT
# [19] = tested on: M. avium clinical isolate Koav 19 (WT); assay: microbe, parasite or virus in culture; assay type: cell-based; details: Koav 19 (K 19), WT
# [20] = tested on: M. avium clinical isolate Koav 20 (WT); assay: microbe, parasite or virus in culture; assay type: cell-based; details: Koav 20 (K 20), WT; for MIC: Mycobacterium avium
# [21] = tested on: M. avium clinical isolate Koav 21 (WT); assay: microbe, parasite or virus in culture; assay type: cell-based; details: Koav 21 (K 21), WT; for MIC: Mycobacterium avium
# [22] = tested on: M. avium clinical isolate Koav 25 (WT); assay: microbe, parasite or virus in culture; assay type: cell-based; details: Koav 25 (K 25), WT; for MIC: Mycobacterium avium
# [23] = tested on: M. avium clinical isolates; assay type: cell-based, M. avium subsp. hominissuis
# [24] = drug alone, day 14, read-out: MIC
# [25] = checkerboard, single replicates
# [26] = checkerboard (with 1 µg/ml INH), read-out: MIC of FQ with INH
# [27] = checkerboard, single replicates, read-out: MIC of drug alone
# [28] = checkerboard (S2: with 1 µg/ml EMB), read-out: MIC of FQ with EMB
# [29] = Mycobacterium avium, checkerboard, single replicates, read-out: MIC of drug alone
# [30] = checkerboard (with 1 µg/ml INH)
# [31] = FQ-resistant isolates, MIC assay
smiles,measurement,setting,value
Cc1c(N2CC(N(C)C)C2)c(F)cc2c(=O)c(C(=O)O)cn(-c3nc(N)c(F)cc3F)c12 [WQ-3810],MIC,[1],4 µg/mL
same,MIC with 1 µg/mL EMB,[1],4 (×1) µg/mL
same,MIC with 1 µg/mL INH,[1],2 (×0.5) µg/mL
same,MIC,[2],4 µg/mL
same,MIC with 1 µg/mL EMB,[2],4 (×1) µg/mL
same,MIC with 1 µg/mL INH,[2],4 (×1) µg/mL
same,MIC,[3],8 µg/mL
same,MIC with 1 µg/mL EMB,[3],4 (×0.5) µg/mL
same,MIC with 1 µg/mL INH,[3],4 (×0.5) µg/mL
same,MIC,[4],4 µg/mL
same,MIC with 1 µg/mL EMB,[4],1 (×0.25) µg/mL
same,MIC with 1 µg/mL INH,[4],1(×0.25) µg/mL
same,MIC,[5]; [24],0.125 µg/mL
same,MIC,[5]; read-out: MIC with 1 µg/mL EMB,0.01 µg/mL
same,MIC,[5]; read-out: MIC with 1 µg/mL INH,0.03 µg/mL
same,MIC,[6],0.5 µg/mL
same,MIC,[7]; [24],1 µg/mL
same,MIC,[7]; read-out: MIC with 1 µg/mL EMB,1 µg/mL
same,MIC,[7]; read-out: MIC with 1 µg/mL INH,1 µg/mL
same,MIC,[8]; [24],0.5 µg/mL
same,MIC,[8]; read-out: MIC with 1 µg/mL EMB,0.25 µg/mL
same,MIC,[8]; read-out: MIC with 1 µg/mL INH,0.13 µg/mL
same,MIC,[9]; [24],0.125 µg/mL
same,MIC,[9]; read-out: MIC with 1 µg/mL EMB,0.13 µg/mL
same,MIC,[9]; read-out: MIC with 1 µg/mL INH,0.13 µg/mL
same,MIC,[10]; [24],1 µg/mL
same,MIC,[10]; read-out: MIC with 1 µg/mL EMB,1 µg/mL
same,MIC,[10]; read-out: MIC with 1 µg/mL INH,1 µg/mL
same,MIC,[11]; [24],1 µg/mL
same,MIC,[11]; read-out: MIC with 1 µg/mL EMB,0.5 µg/mL
same,MIC,[11]; read-out: MIC with 1 µg/mL INH,0.5 µg/mL
same,FICIm,[12],0.75
same,MIC of FQ with EMB,[12],1 µg/mL and 2 µg/mL
same,MIC of FQ with INH,[12],1 µg/mL and 2 µg/mL
same,MIC of drug alone,[12],4 µg/mL
same,mean FICIm,[12],0.71 and 0.75
same,MIC of FQ with EMB,[13],2 µg/mL
same,MIC of FQ with INH,[13],1 µg/mL and 0.5 µg/mL
same,MIC of drug alone,[13],4 µg/mL
same,mean FICIm,[13],0.46 and 0.83
same,MIC of FQ with EMB,[14],4 µg/mL and 2 µg/mL
same,MIC of drug alone,[14],8 µg/mL and 4 µg/mL
same,MIC of FQ with EMB,[15],1 µg/mL and 0.5 µg/mL
same,MIC of FQ with INH,[15],0.5 µg/mL and 0.25 µg/mL
same,mean FICIm,[15],0.53 and 0.66
same,mean FICIm,[16]; FQ with EMB,0.62
same,mean FICIm,[16]; FQ with INH,0.45
same,FICIm,"[16]; FQ+EMB, single replicates",0.625 and 0.5 and 0.75
same,FICIm,"[16]; FQ+INH, single replicates",0.5 and 0.375
same,MIC of drug alone,[16]; [25],0.25 µg/mL
same,MIC,[16]; [26],0.0312 µg/mL
same,MIC,[16]; [27],0.125 µg/mL
same,mean FICIm,[17]; FQ with EMB,0.91
same,mean FICIm,[17]; FQ with INH,0.25
same,FICIm,"[17]; FQ+EMB, single replicates",0.75 and 1
same,FICIm,"[17]; FQ+INH, single replicates",0.25
same,MIC of FQ with EMB,[17]; checkerboard (S2: with 1 µg/ml EMB),0.25 µg/mL
same,MIC,[17]; [28],0.125 µg/mL
same,MIC,[17]; [26],0.0625 µg/mL
same,MIC,[17]; [27],0.5 µg/mL
same,mean FICIm,[18]; FQ with EMB,0.71
same,mean FICIm,[18]; FQ with INH,0.33
same,FICIm,"[18]; FQ+EMB, single replicates",0.75 and 0.625
same,FICIm,"[18]; FQ+INH, single replicates",0.25 and 0.5 and 0.2812
same,MIC,[18]; [29],1 µg/mL
same,mean FICIm,[19]; FQ with EMB,0.85
same,mean FICIm,[19]; FQ with INH,0.45 and 0.46
same,FICIm,"[19]; FQ+EMB, single replicates",1 and 0.625
same,FICIm,"[19]; FQ+INH, single replicates",0.5312 and 0.5 and 0.375
same,MIC of drug alone,[19]; [25],0.5 µg/mL
same,MIC,[19]; [29],0.25 µg/mL
same,mean FICIm,[20]; FQ with EMB,0.66
same,mean FICIm,[20]; FQ with INH,0.25
same,FICIm,"[20]; FQ+EMB, single replicates",0.625 and 0.75
same,FICIm,"[20]; FQ+INH, single replicates",0.25
same,MIC of FQ with INH,[20]; [30],0.0625 µg/mL
same,MIC of drug alone,[20]; [25],0.5 µg/mL
same,MIC,[20]; [26],0.0312 µg/mL
same,MIC,[20]; [27],0.25 µg/mL
same,mean FICIm,[21]; FQ with EMB,0.75
same,mean FICIm,[21]; FQ with INH,0.41
same,FICIm,"[21]; FQ+EMB, single replicates",0.75
same,FICIm,"[21]; FQ+INH, single replicates",0.375 and 0.5312
same,MIC of FQ with INH,[21]; [30],1 µg/mL
same,MIC,[21]; [28],0.5 µg/mL
same,MIC,[21]; [26],0.5 µg/mL
same,MIC,[21]; [27],2 µg/mL
same,mean FICIm,[22]; FQ with EMB,0.75
same,mean FICIm,[22]; FQ with INH,0.39
same,FICIm,"[22]; FQ+EMB, single replicates",0.75
same,FICIm,"[22]; FQ+INH, single replicates",0.5 and 0.375 and 0.3125
same,FIC of FQ,[22]; pair with EMB,0.25 µg/mL
same,MIC,[22]; [28],0.25 µg/mL
same,MIC,[22]; [27],1 µg/mL
same,MIC range,[23],4 to 8 µg/mL
same,higher antimicrobial activity than CIP,[23]; [31],4 to 8 fold
same,higher antimicrobial activity than LVX,[23]; [31],2 to 16 fold
same,higher antimicrobial activity than MXF,[23]; [31],2 to 4 fold
same,MIC range,[23]; WT isolates,0.125 to 1 µg/mL
